Where “and” joins values, the source holds several entries; their conditions need not be identical. Equal values may be shown once.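 Interpolation was linear, between the two tested concentrations surrounding the appropriate level; five concentrations were tested over 48 hours in 96-well plates. Abbreviation: GI50, concentration required for 50% inhibition of growth. TGI is the concentration that stops growth completely.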
Legend:
Assay in all cases: DTP human tumour cell line panel, 48 h
NCI-H226 lung = test system: NCI-H226 lung
LOX IMVI melanoma = test system: LOX IMVI melanoma
SNB-19 CNS = test system: SNB-19 CNS
U251 CNS = test system: U251 CNS
RXF 393 renal = test system: RXF 393 renal
DU-145 prostate = test system: DU-145 prostate
HT29 colon = test system: HT29 colon
CAKI-1 renal = test system: CAKI-1 renal
OVCAR-8 ovarian = test system: OVCAR-8 ovarian
NCI-H23 lung = test system: NCI-H23 lung

Row | Structure (SMILES) | TGI (NCI-H226 lung) | TGI (LOX IMVI melanoma) | TGI (SNB-19 CNS) [µM] | TGI (U251 CNS) [µM] | TGI (RXF 393 renal) | TGI (DU-145 prostate) [µM] | TGI (HT29 colon) [µM] | TGI (CAKI-1 renal) | TGI (OVCAR-8 ovarian) | TGI (NCI-H23 lung) [µM] | GI50 (NCI-H226 lung) | GI50 (LOX IMVI melanoma) | GI50 (SNB-19 CNS) | GI50 (U251 CNS) | GI50 (RXF 393 renal) | GI50 (DU-145 prostate) | GI50 (HT29 colon) | GI50 (CAKI-1 renal) | GI50 (OVCAR-8 ovarian) | GI50 (NCI-H23 lung)
1 | C[C@]12CCC(=O)C(O)=C1CC[C@@H]1[C@@H]2CC[C@]2(C)C(=O)CC[C@@H]12 | > 100 µM | > 100 µM | > 100 | > 100 | > 100 µM | > 100 | > 100 | > 100 µM | > 100 µM | > 100 |  |  |  |  |  |  |  |  |  | 
2 | Cc1ccc2c(=O)c3cccc(CC(=O)O)c3oc2c1C | > 100 µM | > 100 µM | > 100 | > 100 | > 100 µM | > 100 | > 100 | > 100 µM | > 100 µM | > 100 | > 100 µM | > 100 µM | > 100 µM | > 100 µM | > 100 µM | > 100 µM | > 100 µM | > 100 µM | > 100 µM | > 100 µM
3 | O=C1c2ccccc2-c2c1c1ccccc1c(=O)n2CCNCCNCCn1c2c(c3ccccc3c1=O)C(=O)c1ccccc1-2 | 18.9 µM | 1.76 µM | 20.5 | 1.59 | 10.3 µM | 4.61 | > 100 | 18.4 µM | 2.29 µM | > 30.6 | 0.22 µM | 0.0437 µM | 1.14 µM | 0.0382 µM | 0.114 µM | 0.179 µM | 0.017 µM | 0.527 µM | 0.226 µM | 0.717 µM
4 | O=C1c2ccccc2-c2c1c1ccccc1c(=O)n2CCCN1CCOCC1 | 84.5 µM | 62.1 µM | 39.1 | 14.9 | 24.3 µM | > 82.6 | > 100 | 30 µM | > 75.2 µM | 41.5 | 26.4 µM | 8.87 µM | 14.2 µM | 3.67 µM | 6.21 µM | 10.1 µM | > 100 µM | 14 µM | 7.26 µM | 15.4 µM
5 | COC(=O)/C(=C\c1c(C)[nH]c2ccccc12)S(=O)(=O)c1ccccc1 | 19.5 µM | 5.18 µM | 22.1 | 12.6 | 31.9 µM | 8.01 | > 100 | 16.7 µM | > 100 µM | 29.5 | 4.34 µM | 1.99 µM | 7.59 µM | 3.42 µM | 3.63 µM | 2.94 µM | 5.23 µM | 3.33 µM | 3.94 µM | 4.81 µM
6 | CNC(=O)c1cccc(-c2ccc3c(N4CCOC[C@@H]4C)nc(N4CCOC[C@@H]4C)nc3n2)c1 | 0.77 µM and 2.9 µM and 0.959 µM | 5.24 µM and > 4.47 µM and > 43.9 µM | > 93.3 | > 100 | 0.47 µM and 0.37 µM and 0.337 µM | > 100 | > 100 | 1.83 µM and > 3.36 µM | 27.7 µM and > 10 µM and 3.42 µM | > 100 | 0.0438 µM and 0.149 µM and 0.115 µM | 0.113 µM and 0.217 µM and 0.228 µM | 0.448 µM and 0.29 µM | 0.236 µM and 0.422 µM and 0.176 µM | 0.0488 µM and 0.06 µM and 0.028 µM | 0.162 µM and 0.302 µM and 0.25 µM | 0.144 µM and 0.355 µM and 0.323 µM | 0.0693 µM and 0.148 µM and 0.144 µM | 0.162 µM and 0.313 µM and 0.164 µM | 0.111 µM and 0.273 µM and 0.245 µM
7 | COc1cc2c(/C=C3/C(=O)Nc4ccccc43)c(Cl)n(Cc3ccccc3[N+](=O)[O-])c2cc1C | 38.4 µM | 24 µM | 30.8 | 25.1 | 96.2 µM | > 100 | 24.4 | 23.3 µM | > 100 µM | 22.3 | 12.7 µM | 9.17 µM | 11.1 µM | 11.2 µM | 18.9 µM | 6.74 µM | 1.93 µM | 6.39 µM | 26.1 µM | 7.77 µM
8 | CCN(CC)CCOc1ccc(/C=C2\CC3C4CC=C5C[C@@H](N6CCCC6)CC[C@]5(C)C4CC[C@]3(C)[C@H]2O)cc1OC (stereo partly drawn) | 45.2 µM | 5.28 µM | > 63.5 | 20.5 | 17.8 µM | 34.7 | > 100 | 46.1 µM | > 40.8 µM | 25.1 | 19.3 µM | 1.92 µM | 6.2 µM | 3.08 µM | 3.79 µM | 4.62 µM | 2.39 µM | 16.3 µM | 5.16 µM | 8.87 µM
9 | CC1=Cc2cc3[n-]c(cc4nc(cc5[n-]c(cc1n2)cc5C)C(C)=C4CCC(=O)O)c(CCC(=O)O)c3C.[Pd+2] | 17.8 µM | 39.6 µM | 34.1 | 8.24 | > 37.9 µM | > 100 | 36.3 | 48.6 µM |  | 25.2 | 8.95 µM | 15.7 µM | 9.52 µM | 2.56 µM | 17.9 µM | > 100 µM | 14.8 µM | 27 µM |  | 9.55 µM
10 | CCOC(CN=c1nc(N(C)C)ss1)OCC | 36 µM | 31.2 µM | > 77.4 | 29.9 | 37.3 µM | > 100 | 17.5 | 41.3 µM | 46.7 µM | 65.8 |  |  |  |  |  |  |  |  |  | 
11 | O=c1cc(-c2ccccc2)nc2n1CCN2Cc1ccccc1 | > 100 µM | > 100 µM | > 100 | > 100 | > 100 µM | > 100 | > 100 | > 100 µM | > 100 µM |  | 54.7 µM | 29.8 µM | 80.9 µM | 30.5 µM | 46.2 µM | 34 µM | 58.1 µM | 29.7 µM | 47.2 µM | 
12 | C[N+](C)(CCCCCC[N+](C)(C)CCCN1C(=O)c2cc3ccccc3cc2C1=O)CCCN1C(=O)c2ccccc2C1=O | > 37.5 µM | > 37.5 µM | > 37.5 | > 37.5 | > 37.5 µM | > 37.5 | > 37.5 | > 37.5 µM | > 37.5 µM | > 37.5 | > 37.5 µM | > 37.5 µM | > 37.5 µM | > 37.5 µM | > 37.5 µM | > 37.5 µM | > 37.5 µM | > 37.5 µM | > 37.5 µM | > 37.5 µM
13 | Cc1ccc2c(N)c(C(=O)N[C@H]3CCc4cc(N5CC6CCC(C5)N6)ccc4C3)sc2n1 | 2.58 µM | 0.405 µM | 2.49 | 2.15 | 0.686 µM | 1.48 | 3.22 | 2.96 µM | 2.83 µM | 5.31 | 0.452 µM | 0.0761 µM | 0.325 µM | 0.311 µM | 0.217 µM | 0.165 µM | 0.257 µM | 0.357 µM | 0.385 µM | 1.24 µM
14 | Nc1ccccc1C#C/C=C\C#Cc1ccc(Cl)cc1Cl | 39.5 µM | 26.5 µM |  | 34 | 40.7 µM | 37.8 | > 100 | 13.5 µM | 41.5 µM | 31.5 | 19.2 µM | 11 µM |  | 15.3 µM | 14.3 µM | 13.5 µM | 15.1 µM | 3.38 µM | 19.1 µM | 14.2 µM
15 | CC1(C)N=C(N)N=C(N)N1c1cc(Cl)ccc1Cl | > 100 µM | > 100 µM | > 100 | > 100 | > 100 µM | > 100 | > 100 |  | > 100 µM | > 100 | > 100 µM | > 100 µM | > 100 µM | > 100 µM | > 100 µM | 28.3 µM | 62.5 µM |  | > 100 µM | > 100 µM
16 | CCSc1nc(N=Cc2cccs2)c2cn[nH]c2n1 | 43.2 µM | > 100 µM | > 100 | > 100 | 7.72 µM | > 100 | 80.9 | > 100 µM | > 100 µM | 23.2 | 0.299 µM | 7.89 µM | 45.2 µM | 69.4 µM | 2.85 µM | 15.1 µM | 16.7 µM | 18 µM | 55.9 µM | 11.2 µM
17 | O=[N+]([O-])/C=C/c1c[nH]c2ccccc12 | 40.4 µM | 30.2 µM | 35.4 | 26.7 | 35.1 µM | 32.5 | 38.8 | 32.7 µM | 49.4 µM | 31 | 18.1 µM | 15.9 µM | 18.4 µM | 12.8 µM | 19.5 µM | 15.5 µM | 19.5 µM | 16.8 µM | 21.6 µM | 15 µM
18 | O=C(Nc1ccc(Cl)cc1)c1cc2ccccc2cc1O | 82.2 µM | 18.2 µM | > 100 | 29.5 | > 100 µM | > 100 | > 100 |  | > 100 µM | > 100 | 2.59 µM | 2.36 µM | 4.19 µM | 2.54 µM | 7.19 µM | 3.18 µM | 4.09 µM |  | 3.67 µM | 2 µM
19 | CN(C)CCCNC(=O)c1cc(NC(=O)c2cc(NC(=O)c3cc(NC(=O)CCc4c[nH]c5ccccc45)cn3C)cn2C)cn1C | > 100 µM | > 100 µM | > 100 | > 100 | > 100 µM | > 100 | > 100 |  | > 100 µM | > 100 | > 100 µM | > 100 µM | > 100 µM | > 100 µM | > 100 µM | > 100 µM | 30.7 µM |  | > 100 µM | > 100 µM

— PubChem BioAssay (NCI)
